ChEMBL document CHEMBL4680330, “Soloxolone methyl, as a 18βH-glycyrrhetinic acid derivate, may result in endoplasmic reticulum stress to induce apoptosis in breast cancer cells” (Bioorg Med Chem, 2021)
The source made the active and inactive calls. The calls are words filed in the database; no cut-off is given here.

Tests used:
MCF7 [1] = test: Cytotoxicity against human MCF7 cells assessed as reduction in cell viability incubated for 24 hrs by ATP based luminometry; format: functional; conditions: MCF7, 24 h
MDA-MB-231 [2] = test: Cytotoxicity against human MDA-MB-231 cells assessed as reduction in cell viability incubated for 48 hrs by ATP based luminometry; format: functional; conditions: MDA-MB-231, 48 h
[3] = tested on: Epidermoid carcinoma cell line; test: Cytotoxicity against human Epidermoid carcinoma cell line; format: functional, cell-based
MCF7 [4] = test: Induction of apoptosis in human MCF7 cells assessed as PARP level at 10 uM incubated for 24 hrs by Western blot analysis (reference value: 1); format: functional
MCF7 [5] = test: Induction of late apoptosis in human MCF7 cells assessed as increase in rate of formation of pycnotic nuclei at 10 uM by Hoechst 33342 and PI staining based fluorescence microscopic analysis; format: functional, cell-based; conditions: TDE = time-dependent effect
MCF7 [6] = test: Induction of late apoptosis in human MCF7 cells assessed as increase in PI […] at 10 uM by Hoechst 33342 and PI staining based fluorescence microscopic analysis; format: functional, cell-based; conditions: TDE = time-dependent effect
MDA-MB-231 [7] = test: Induction of early apoptosis in human MDA-MB-231 cells assessed as increase in rate of formation of pycnotic nuclei at 10 uM incubated for 24 hrs by Hoechst 33342 and PI staining based fluorescence microscopic analysis; format: functional, cell-based
MDA-MB-231 [8] = test: Induction of late apoptosis in human MDA-MB-231 cells assessed as increase in rate of formation of pycnotic nuclei at 10 uM by Hoechst 33342 and PI staining based fluorescence microscopic analysis; format: functional, cell-based; conditions: TDE = time-dependent effect
MCF7 [9] = test: Induction of apoptosis in human MCF7 cells assessed as cytokeratin 18 by measuring increase in M-30 level at 10 uM incubated for 24 hrs by ELISA; format: functional, cell-based
MCF7 [10] = test: Induction of apoptosis in human MCF7 cells assessed as cytokeratin 18 by measuring increase in M-30 level at 10 uM incubated for 48 hrs by ELISA; format: functional, cell-based
MCF7 [11] = test: Induction of apoptosis in human MCF7 cells assessed as late apoptotic cells at 10 uM incubated for 24 hrs by annexin V-FITC and PI staining based flow cytometry analysis (reference value: 14.60 %); format: functional
MCF7 [12] = test: Induction of apoptosis in human MCF7 cells assessed as necrotic cells at 10 uM incubated for 24 hrs by annexin V-FITC and PI staining based flow cytometry analysis (reference value: 15.60 %); format: functional
MDA-MB-231 [13] = test: Induction of apoptosis in human MDA-MB-231 cells assessed as viable cells at 10 uM incubated for 24 hrs by annexin V-FITC and PI staining based flow cytometry analysis (reference value: 94.40 %); format: functional; conditions: read-out: Activity
MDA-MB-231 [14] = test: Induction of apoptosis in human MDA-MB-231 cells assessed as late apoptotic cells at 10 uM incubated for 24 hrs by annexin V-FITC and PI staining based flow cytometry analysis (reference value: 3.95 %); format: functional
[15] = Induction of caspase 3/7 activity in human MCF7 cells assessed as induction of apoptosis by measuring viable cells at 10 uM incubated for 24 hrs by flow cytometry analysis (reference value: 73.10 %); format: functional
[16] = Induction of caspase 3/7 activity in human MCF7 cells assessed as induction of apoptosis by measuring early apoptotic cells at 10 uM incubated for 24 hrs by flow cytometry analysis (reference value: 0.70 %); format: functional
[17] = Induction of caspase 3/7 activity in human MCF7 cells assessed as induction of apoptosis by measuring late apoptotic cells at 10 uM incubated for 24 hrs by flow cytometry analysis (reference value: 22.90 %); format: functional
[18] = Induction of caspase 3/7 activity in human MDA-MB-231 cells assessed as induction of apoptosis by measuring late apoptotic cells at 10 uM incubated for 24 hrs by flow cytometry analysis (reference value: 1.55 %); format: functional
MCF7 [19] = test: Induction of cell death in human MCF7 cells assessed as upregulation of TNFRSF10B gene at 10 uM incubated for 24 hrs by RT-PCR analysis; format: functional, cell-based
MCF7 [20] = test: Induction of cell death in human MCF7 cells assessed as upregulation of HRK gene at 10 uM incubated for 24 hrs by RT-PCR analysis; format: functional, cell-based
MDA-MB-231 [21] = test: Induction of cell death in human MDA-MB-231 cells assessed as upregulation of BECN1 gene at 10 uM incubated for 48 hrs by RT-PCR analysis; format: functional, cell-based
MCF7 [22] = test: Induction of cell death in human MCF7 cells assessed as downregulation of MLKL gene at 10 uM incubated for 48 hrs by RT-PCR analysis; format: functional, cell-based
MCF7 [23] = test: Induction of cell death in human MCF7 cells assessed as downregulation of PARP gene at 10 uM incubated for 48 hrs by RT-PCR analysis; format: functional, cell-based
MDA-MB-231 [24] = test: Induction of cell death in human MDA-MB-231 cells assessed as upregulation of BECN1 gene at 10 uM measured after 48 hrs by RT-PCR analysis; format: functional, cell-based
MCF7 [25] = test: Induction of cell death in human MCF7 cells assessed as downregulation of MLKL gene at 10 uM measured after 48 hrs by RT-PCR analysis; format: functional, cell-based
MCF7 [26] = test: Induction of cell death in human MCF7 cells assessed as downregulation of RIPK gene at 10 uM measured after 48 hrs by RT-PCR analysis; format: functional, cell-based
MDA-MB-231 [27] = test: Induction of cell death in human MDA-MB-231 cells assessed as downregulation of PARP gene at 10 uM measured after 48 hrs by RT-PCR analysis; format: functional, cell-based
MDA-MB-231 [28] = test: Induction of cell death in human MDA-MB-231 cells assessed as downregulation of RIPK gene at 10 uM measured after 48 hrs by RT-PCR analysis; format: functional, cell-based
MCF7 [29] = test: Induction of apoptosis in human MCF7 cells assessed as cleaved PARP level at 10 uM incubated for 24 hrs by Western blot analysis (reference value: 1); format: functional
MCF7 [30] = test: Induction of apoptosis in human MCF7 cells assessed as pro-caspase 8 level at 10 uM incubated for 24 hrs by Western blot analysis (reference value: 1); format: functional
MCF7 [31] = test: Induction of apoptosis in human MCF7 cells assessed as cleaved pro-caspase 8 level at 10 uM incubated for 24 hrs by Western blot analysis (reference value: 1); format: functional
MCF7 [32] = test: Induction of apoptosis in human MCF7 cells assessed as pro-caspase 3 level at 10 uM incubated for 24 hrs by Western blot analysis (reference value: 1); format: functional
MDA-MB-231 [33] = test: Induction of apoptosis in human MDA-MB-231 cells assessed as cleaved pro-caspase 3 level at 10 uM incubated for 24 hrs by Western blot analysis (reference value: 1); format: functional
MCF7 [34] = test: Induction of endoplasmic reticulum stress in human MCF7 cells assessed as IRE1-alpha expression at 10 uM incubated for 24 hrs by Western blot analysis (reference value: 1); format: functional
MCF7 [35] = test: Induction of endoplasmic reticulum stress in human MCF7 cells assessed as CHOP expression at 10 uM incubated for 24 hrs by Western blot analysis (reference value: 1); format: functional
MDA-MB-231 [36] = test: Induction of endoplasmic reticulum stress in human MDA-MB-231 cells assessed as CHOP expression at 10 uM incubated for 24 hrs by Western blot analysis (reference value: 1); format: functional

COC(=O)[C@@]1(C)CC[C@]2(C)CC[C@]3(C)[C@H](C(=O)C=C4[C@@]5(C)C=C(C#N)C(=O)C(C)(C)[C@@H]5CC[C@]43C)[C@@H]2C1
IC50 (MCF7 [1]): 11.7 µM
IC50 (MDA-MB-231 [2]): 5.97 µM
IC50 [3]: ≥ 0.3 µM
fold change (FC) (MCF7 [4]): 0.3
Activity (MCF7 [5]): Tde
Activity (MCF7 [6]): Tde
Activity (MDA-MB-231 [7]): Active
Activity (MDA-MB-231 [8]): Tde
Activity (MCF7 [9]): inactive
Activity (MCF7 [10]): Active
Activity (MCF7 [11]): 18.35%
Activity (MCF7 [12]): 10.8%
viability at 10 µM (MDA-MB-231 [13]): 25.2%
Activity (MDA-MB-231 [14]): 69.55%
Activity [15]: 60.2%
Activity [16]: 0.55%
Activity [17]: 24.55%
Activity [18]: 76.4%
Activity (MCF7 [19]): Active
Activity (MCF7 [20]): Active
Activity (MDA-MB-231 [21]): Active
Activity (MCF7 [22]): Active
Activity (MCF7 [23]): Active
Activity (MDA-MB-231 [24]): inactive
Activity (MCF7 [25]): inactive
Activity (MCF7 [26]): inactive
Activity (MDA-MB-231 [27]): inactive
Activity (MDA-MB-231 [28]): inactive
fold change (FC) (MCF7 [29]): 4.5
fold change (FC) (MCF7 [30]): 1.2
fold change (FC) (MCF7 [31]): 1.01
fold change (FC) (MCF7 [32]): 1.7
fold change (FC) (MDA-MB-231 [33]): 12.7
fold change (FC) (MCF7 [34]): 0.6
fold change (FC) (MCF7 [35]): 0.3
fold change (FC) (MDA-MB-231 [36]): 6
